Measurements as given in US10961187B2, “Substituted N-acetyl-L-cysteine derivatives and related compounds” (Promentis Pharmaceuticals, Inc., priority 2013, dated 2021).

Tests used:
[1] = system: mixed cortical cell cultures containing glial and neuronal cells; experiment: In vitro thiol experiment: intracellular cysteine levels; format: cell-based, mice; conditions: for intracellular cysteine concentration: raw concentration in collected samples
Method: To further resolve by what process the inhibition of ^14C-cystine uptake is occurring intracellular cysteine levels were determined.
Mixed cortical cell cultures containing glial and neuronal cells were prepared from fetal (15-16 day gestation) mice as previously described. (Lobner D, “Comparison of the LDH and MTT assays for quantifying cell death: validity for neuronal apoptosis?,” J. Neurosci. Methods, 96(2): 147-152 (Mar. 15, 2000)). Dissociated cortical cells were plated on 24-well plates coated with poly-D-lysine and laminin in Eagles' Minimal Essential Medium (MEM, Earle's salts, supplied glutamine-free) supplemented with 5% heat-inactivated horse serum, 5% fetal bovine serum, 2 mM glutamine and glucose (total 21 mM). Cultures were maintained in humidified 5% CO2 incubators at 37° C. Mice were handled in accordance with a protocol approved by our institutional animal care committee and in compliance with the Public Health service Policy on Humane Care and Use of Laboratory Animals.
Mixed cortical cell cultures, 14 days in vitro (this allows for a confluent layer of astrocytes to form and the neurons to generate a complex network of axons and dendrites), were washed into bicarbonate buffered salt solution. After 1 hour, 3, 10, 30, 100 μM of Pro-4047 or Pro-4051 was added and the cells were incubated for 30 or 90 minutes, after which the cells were thoroughly washed and the collected in 250 μL of aqueous mobile phase (50 mM citric acid, 10 mM octanesulfonic acid, pH 2.8) was added, after 10 minutes at 37° C. the cells were scraped from the plates and transferred to 1.5 mL tubes for analysis.
Samples were then sonicated with a Fisher Scientific 60 Sonic Dismembrator. One fraction of this homogenate was analyzed with the Pierce BCA (bicinchoninic acid) method to determine protein concentration. The other fraction was filtered using 3 K molecular weight cutoff, polyethersulfone centrifugal protein filters, and analyzed for thiol content using HPLC (ALF-115 column, 150×1.0 mm, 3 μm C18 [Pro-2023 analysis utilized a Phenomenex Kinetex 2.6 μM, C18, 100 A, 150×2.1 mm and Pro-4047 analysis utilized a Phenomenex Kinetex X-B, C18, 100 A, 2.6 μm, 150×4.4 mm]; mobile phase: 50 mM citric acid, 10 mM octanesulfonic acid, 2% acetonitrile, pH 2.8, 50 μL/min flow rate [Pro-2023 analysis utilized a 100 μL/min flow rate and Pro-4047 analysis utilized 1% acetonitrile and 0.4 mL/min flow rate] with electrochemical detection (Decade II, Au working electrode, Flex Cell HyREF, 0.55V, Antec Leyden, Netherlands [Pro-4047 analysis utilized a Magic Diamond working electrode and 1.8V]).
When the intracellular thiol assay was initiated, all data was normalized to protein concentration. […] The data presented herein represents the raw cysteine concentrations in the collected samples. […] Pro-4006 at 10 μM increases intracellular cysteine concentration to 0.07 μM at 30 minutes (approximately 3.5 times that of the control; FIG. 11). […] Pro-4047 at 300 μM increases intracellular cysteine concentration to 0.74 μM at 90 minutes (approximately 4.9 times that of the control; FIG. 13). […] Thus, based on the 3 in vitro experiments it is apparent that Pro-2023, Pro-4006, Pro-4011, Pro-4047, Pro-4051 and Pro-4051a behave as effective cysteine prodrugs.

[2] = system: Rats; experiment: Prepulse inhibition experiment (MK-801-induced deficit); format: in vivo; conditions: MK-801 0.1 mg/kg SC, MK-801 + vehicle control about 16%
Method: Rats were placed on a platform in a sound attenuating chamber (10.875″×14″×19.5″; Hamilton Kinder, CA) that rested on a motion sensing plate. During all sessions, the background noise was held constant at 60 dB. A matching session was conducted to determine the magnitude of the average startle response for each rat. This session consisted of a five minute habituation period followed by 20 trials; 17 trials involved the presentation of a single auditory stimulus (pulse stimulus; 50 dB above the background noise) and three trials in which a pre-pulse stimulus (12 db above background) was presented 100 ms before the pulse auditory stimulus. Rats were then assigned into the various treatment groups so that the magnitude of the startle response was equivalent across all groups. Two days later, a testing session was conducted to assess sensorimotor gating. One hour prior to testing, rats received a prodrug (0-100 mg/kg, P.O.) and 55 minutes later acute MK-801 maleate (0.1 mg/kg, SC). The testing session consisted of a five minute habituation period, after which rats received 58 discrete trials; 26 trials during which the pulse stimulus (50 db above background) was presented alone, eight trials each in which the pulse stimulus was preceded by a prepulse stimulus (5, 10, or 15 db above background) and eight background trials with no pulse (No stimulus; background noise only). The first six pulse alone trials were not included in the average startle stimulus to achieve a relatively stable level of startle reactivity. All startle responses were normalized to vehicle control, and the percent of prepulse inhibition was determined as 100-(average prepulse startle response/average startle stimulus alone)*100.

[3] = 10 mg/kg P.O. one hour prior to testing

Compound	intracellular cysteine, times that of the control ([1]; 100 μM compound, 30 minutes)	intracellular cysteine concentration ([1]; 100 μM compound, 30 minutes)	% prepulse inhibition [2, 3]	intracellular cysteine, times that of the control ([1]; 300 μM compound, 90 minutes)	intracellular cysteine concentration ([1]; 300 μM compound, 90 minutes)	% prepulse inhibition ([2]; 3 mg/kg P.O. one hour prior to testing)	intracellular cysteine, times that of the control ([1]; 100 μM compound, 90 minutes)	intracellular cysteine concentration ([1]; 100 μM compound, 90 minutes)
CC(=O)N[C@@H](CSC(=O)c1ccc(C)cc1)C(=O)O [Pro-2023, (2R)-2-Acetylamino-3-(4-methyl-benzoylsulfanyl)-propionic acid]	approximately 1.6 times	0.16 µM	about 30%	–	–	–	–	–
CCOC(=O)[C@H](CSC(=O)C1CSC(=O)N1)NC(C)=O (stereo partly drawn) [Pro-4047, Ethyl (2R)-2-acetamido-3-(2-oxo-1,3-thiazolidine-4-carbonylsulfanyl) propanoate]	–	–	–	approximately 4.9 times	0.74 µM	about 23%	–	–
CCOC(=O)[C@H](CSC(=O)c1ccc(C)cc1)NC(C)=O [Pro-4051, Ethyl (2R)-2-acetamido-3-(4-methylbenzoylsulfanyl)propanoate]	–	–	about 46%	–	–	–	approximately 4 times	0.36 µM
